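Tested at 5 concentrations; 48 h exposure; 96-well plates; endpoints linearly interpolated, else capped at highest concentration. Abbreviation: GI50, concentration required for 50% inhibition of growth.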 The source made the active and inactive calls. No stated cut-off is given here; in the data, active = GI50 up to about 1.1 µM and inactive = higher.
Assays:
Test in all cases: NCI anticancer screen, dose series, 48 h
SK-MEL-5 = tested on: SK-MEL-5
LOX IMVI = tested on: LOX IMVI
COLO 205 = tested on: COLO 205
OVCAR-3 = tested on: OVCAR-3
EKVX = tested on: EKVX
UACC-62 = tested on: UACC-62
ACHN = tested on: ACHN
Malme-3M = tested on: Malme-3M
IGROV-1 = tested on: IGROV-1
786-0 = tested on: 786-0
NCI-H522 = tested on: NCI-H522
DMS-114 = tested on: DMS-114
SW-620 = tested on: SW-620
SF-539 = tested on: SF-539
OVCAR-5 = tested on: OVCAR-5
OVCAR-4 = tested on: OVCAR-4
MDA-MB-231 = tested on: MDA-MB-231
MDA-N = tested on: MDA-N
DU-145 = tested on: DU-145
T47D = tested on: T47D

Row | SMILES | GI50 (SK-MEL-5) | GI50 (LOX IMVI) | GI50 (COLO 205) | GI50 (OVCAR-3) | GI50 (EKVX) | GI50 (UACC-62) | GI50 (ACHN) | GI50 (Malme-3M) | GI50 (IGROV-1) | GI50 (786-0) | GI50 (NCI-H522) | GI50 (DMS-114) | GI50 (SW-620) | GI50 (SF-539) | GI50 (OVCAR-5) | GI50 (OVCAR-4) | GI50 (MDA-MB-231) | GI50 (MDA-N) | GI50 (DU-145) | GI50 (T47D)
1 | O=c1cc(O)cc2n1CCC2 | > 100 µM (inactive) | > 100 µM (inactive) | > 100 µM (inactive) | > 100 µM (inactive) | > 100 µM (inactive) | > 100 µM (inactive) | > 100 µM (inactive) | > 100 µM (inactive) | > 100 µM (inactive) | > 100 µM (inactive) | > 100 µM (inactive) | > 100 µM (inactive) | > 100 µM (inactive) | > 100 µM (inactive) | > 100 µM (inactive) |  |  |  |  | 
2 | Cc1ccnc(NS(=O)(=O)c2ccc(NC3=CC(=O)C(=O)c4ccccc43)cc2)n1 | > 100 µM (inactive) | > 100 µM (inactive) | > 100 µM (inactive) | > 100 µM (inactive) | > 100 µM (inactive) | > 100 µM (inactive) | > 100 µM (inactive) | > 100 µM (inactive) | > 100 µM (inactive) | > 100 µM (inactive) | > 100 µM (inactive) | > 100 µM (inactive) | > 100 µM (inactive) | > 100 µM (inactive) | > 100 µM (inactive) | > 100 µM (inactive) |  |  |  | 
3 | CC(C)(C)C1CCC(=O)C(C(O)CC2CC(=O)N(c3ccccc3)C(=O)C2)C1 (stereo not given) |  | 49.5 µM (inactive) | > 100 µM (inactive) | > 100 µM (inactive) | > 100 µM (inactive) | > 100 µM (inactive) | > 100 µM (inactive) | > 100 µM (inactive) | > 100 µM (inactive) | > 100 µM (inactive) | 50.4 µM (inactive) | > 100 µM (inactive) | > 100 µM (inactive) | > 100 µM (inactive) | > 100 µM (inactive) | > 100 µM (inactive) |  |  |  | 
4 | FC(F)(F)c1ccc(/C=N/C23CC4CC(CC(C4)C2)C3)cc1 | > 100 µM (inactive) | > 100 µM (inactive) | > 100 µM (inactive) | > 100 µM (inactive) | > 100 µM (inactive) | > 100 µM (inactive) | > 100 µM (inactive) | > 100 µM (inactive) | > 100 µM (inactive) | > 100 µM (inactive) | > 100 µM (inactive) | > 100 µM (inactive) | > 100 µM (inactive) | > 100 µM (inactive) | > 100 µM (inactive) | > 100 µM (inactive) |  |  |  | 
5 | CCCCNC(=O)NNC(=O)c1cc(/C=C/c2cccc([N+](=O)[O-])c2)ncn1 | > 100 µM (inactive) | 34.2 µM (inactive) | > 100 µM (inactive) | > 100 µM (inactive) | > 100 µM (inactive) | > 100 µM (inactive) | > 100 µM (inactive) | > 100 µM (inactive) | > 100 µM (inactive) | > 100 µM (inactive) | > 100 µM (inactive) | 51.3 µM (inactive) | 16.7 µM (inactive) |  | > 100 µM (inactive) |  |  |  |  | 
6 | CCN1N=CSC12C(=O)N(c1ccccc1)C(=O)N2c1ccccc1 (stereo not given) | > 100 µM (inactive) | > 100 µM (inactive) | > 100 µM (inactive) | > 100 µM (inactive) | > 100 µM (inactive) | > 100 µM (inactive) | > 100 µM (inactive) | > 100 µM (inactive) | > 100 µM (inactive) | > 100 µM (inactive) | > 100 µM (inactive) | 57.8 µM (inactive) | > 100 µM (inactive) | > 100 µM (inactive) |  | > 100 µM (inactive) |  |  |  | 
7 | O=c1cc(-c2ccccc2)c2cc3c(=O)ccoc3cc2o1 | 43.7 µM (inactive) | > 100 µM (inactive) | > 100 µM (inactive) | > 100 µM (inactive) | > 100 µM (inactive) | 62.2 µM (inactive) | 87.9 µM (inactive) | 81.5 µM (inactive) |  | > 100 µM (inactive) |  | 83 µM (inactive) | > 100 µM (inactive) | > 100 µM (inactive) |  | > 100 µM (inactive) |  |  |  | 
8 | C[Si](C)(C)OC1(C#N)C2C3CC4C2C(=O)C2C4C3C21 (stereo not given) | > 100 µM (inactive) |  | > 100 µM (inactive) | > 100 µM (inactive) |  | > 100 µM (inactive) | > 100 µM (inactive) | > 100 µM (inactive) | > 100 µM (inactive) | > 100 µM (inactive) |  | > 100 µM (inactive) | > 100 µM (inactive) | > 100 µM (inactive) |  | > 100 µM (inactive) |  |  |  | 
9 | COC(=O)/C(=N\NC(N)=O)C(C(=O)C(=O)Nc1ccccc1C(=O)OC)c1nc2ccc(C(=O)c3ccccc3)cc2nc1O (stereo not given) | > 100 µM (inactive) | > 100 µM (inactive) |  | > 100 µM (inactive) | > 100 µM (inactive) | > 100 µM (inactive) | > 100 µM (inactive) | > 100 µM (inactive) | > 100 µM (inactive) | > 100 µM (inactive) | > 100 µM (inactive) | > 100 µM (inactive) | > 100 µM (inactive) | > 100 µM (inactive) | > 100 µM (inactive) | > 100 µM (inactive) |  |  |  | 
10 | O=C1C2C3CC4C5C3C1C5C1(SCCS1)C42 (stereo not given) | > 100 µM (inactive) |  | > 100 µM (inactive) |  |  | > 100 µM (inactive) | > 100 µM (inactive) | > 100 µM (inactive) | > 100 µM (inactive) | > 100 µM (inactive) | > 100 µM (inactive) | > 100 µM (inactive) | > 100 µM (inactive) | > 100 µM (inactive) |  | > 100 µM (inactive) |  |  |  | 
11 | O=C(N/N=C/c1cccc(O)c1O)N/N=C/c1cccc(O)c1O |  | 18.7 µM (inactive) | > 100 µM (inactive) | 2.51 µM (inactive) | 20.5 µM (inactive) | 11.9 µM (inactive) | 13.9 µM (inactive) | 22.4 µM (inactive) | 48.1 µM (inactive) | 15.1 µM (inactive) |  | > 100 µM (inactive) | 17.5 µM (inactive) | 4.92 µM (inactive) | 22.2 µM (inactive) | 28.2 µM (inactive) |  |  |  | 
12 | CN(C)CC/C(=N\Nc1ccccc1)c1ccccc1 | 17.7 µM (inactive) |  | 17.6 µM (inactive) | 13.9 µM (inactive) | 15.7 µM (inactive) | > 100 µM (inactive) |  | 4.78 µM (inactive) | 29.4 µM (inactive) | 23 µM (inactive) |  | 15.6 µM (inactive) |  | 15.8 µM (inactive) | 14.4 µM (inactive) | 3.25 µM (inactive) |  |  |  | 
13 | Cc1nnc(Sc2nc(C#N)c(C#N)nc2Sc2nnc(C)s2)s1 | 20.6 µM (inactive) | 2.72 µM (inactive) | 4.84 µM (inactive) | 6.32 µM (inactive) | 19.3 µM (inactive) | 17.2 µM (inactive) | 2.93 µM (inactive) | 0.139 µM (active) | 7.24 µM (inactive) | 4.13 µM (inactive) | 1.57 µM (inactive) |  | 1.67 µM (inactive) | 12 µM (inactive) | 17.2 µM (inactive) | 13.4 µM (inactive) | 15.9 µM (inactive) | 12.2 µM (inactive) | 14.9 µM (inactive) | 2.54 µM (inactive)
14 | Cc1ccc([N+](=O)[O-])c2c(NCCNC(=O)c3cc(C(=O)NCCNc4ccnc5c(C)ccc([N+](=O)[O-])c45)n(C)n3)ccnc12 | 32.1 µM (inactive) | > 44.7 µM (inactive) | > 100 µM (inactive) | > 80.9 µM (inactive) | > 100 µM (inactive) | > 47.4 µM (inactive) | > 100 µM (inactive) | 55.2 µM (inactive) | > 100 µM (inactive) | > 56 µM (inactive) | > 67.3 µM (inactive) |  | 32.9 µM (inactive) | > 100 µM (inactive) | > 84.9 µM (inactive) | > 49.1 µM (inactive) | > 54 µM (inactive) | > 43.7 µM (inactive) | > 100 µM (inactive) | > 77.8 µM (inactive)
15 | CCN(CC)c1ccc2cc(C(=O)NCc3ccccc3)c(=N)oc2c1 | 27.6 µM (inactive) | 4.7 µM (inactive) | 16 µM (inactive) | 15.6 µM (inactive) | 13.7 µM (inactive) | 14.3 µM (inactive) | 5.43 µM (inactive) | 15.2 µM (inactive) | 43.7 µM (inactive) | > 62.1 µM (inactive) | 9.59 µM (inactive) |  | 6.01 µM (inactive) | 46.3 µM (inactive) | > 100 µM (inactive) | 16.9 µM (inactive) | > 46.3 µM (inactive) | 70.5 µM (inactive) | 35 µM (inactive) | 4.33 µM (inactive)
16 | Cn1ccnc1Sc1ccc(/C=N/c2ccc3nc(SCC(=O)NC4CCCCC4)sc3c2)cc1[N+](=O)[O-] | > 100 µM (inactive) | 95.1 µM (inactive) | > 100 µM (inactive) | 91.6 µM (inactive) | > 100 µM (inactive) | 19.5 µM (inactive) | 16.6 µM (inactive) | > 100 µM (inactive) | 37.1 µM (inactive) | 11.6 µM (inactive) | 65.9 µM (inactive) |  | > 100 µM (inactive) | 5.68 µM (inactive) | > 100 µM (inactive) | > 100 µM (inactive) | 31.4 µM (inactive) | > 100 µM (inactive) | > 100 µM (inactive) | > 100 µM (inactive)
17 | COc1ccc(C2Cc3cc(OC)c(OC)c(OC)c3C2=O)cc1 (stereo not given) | 75.3 µM (inactive) | > 100 µM (inactive) | > 100 µM (inactive) | > 100 µM (inactive) | > 100 µM (inactive) | > 100 µM (inactive) | > 100 µM (inactive) | > 100 µM (inactive) | > 100 µM (inactive) | > 100 µM (inactive) |  | 76.6 µM (inactive) | > 100 µM (inactive) | > 100 µM (inactive) | > 100 µM (inactive) | > 100 µM (inactive) |  |  |  | 
